US11000571B2 (priority 2016, dated 2021)
Like-named read-outs stand apart in the source and are kept apart here.

Key:
[1] = test system: cultured neurons and astrocytes; conditions: cited from earlier work
[2] = test system: intracerebral hemorrhage (“ICH”) mouse model; parameters: species or system C57BL/6J mice; conditions: in vivo
[3] = test system: MMP-9 (metalloproteinase-9); parameters: species or system C57BL/6J mice; conditions: mouse, in vivo

| Substance | kill of cultured neurons and astrocytes [1] | behavioral and neurological deficits following induction of ICH (overall) [2] | circling behavior [2] | sensory response component of 28-point scale [2] | neurofunction (pilot studies) ([2]; 16 mg/kg) | sensory response component of 28-point scale ([2]; 16 mg/kg) | sensory response component of 28-point scale ([2]; 32 mg/kg) | MMP9 serum levels [3] |
| --- | --- | --- | --- | --- | --- | --- | --- | --- |
| Hemin | 60%-70% | – | – | – | – | – | – | – |
| PHGGGWGQPHGGGWGQ [SEQ ID NO:3] | – | efficacious at diminishing the behavioral and neurological deficits | exception | improved at statistically significant levels | improved neurofunction | improved at statistically significant levels | improved at statistically significant levels | diminished |
